± gives the uncertainty stated by the source.
How the values were obtained:
MKN-45 [1] = assay: % viability under drug (72 h drug + 72 h recovery), miRNA mimic relative to NTC in DMSO; higher = more surviving cells; conditions: drug used in drug arm: crizotinib 1 uM; treatment: drug
Procedure: (§1)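 26 miRNA mimics were transfected into 8 cancer cell lines in triplicate. 48 h post-transfection, cells were treated 72 h with DMSO or a line-specific drug, then recovered 72 h drug-free. Drugs: COLO-205 AZ628 1 uM, MKN-45 crizotinib 1 uM, NCI-H596 paclitaxel 6 uM, EVSA-T GDC-0980 2.5 uM, M14 AZ628 1 uM, HCC-1954 GDC-0980 2.5 uM, NCI-H441 carboplatin 2.5 uM, SKBr3 lapatinib 1 uM. Surviving cells are expressed as % of NTC-transfected cells in DMSO (the NTC drug arm itself is about 30-50%), mean +- SEM.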

NCI-H441 [2] = assay: as above; conditions: drug used in drug arm: carboplatin 2.5 uM; treatment: drug
Procedure: as §1

HCC-1954 [3] = assay: as above; conditions: drug used in drug arm: GDC-0980 2.5 uM; treatment: drug
Procedure: as §1

EVSA-T [4] = assay: as above; conditions: drug used in drug arm: GDC-0980 2.5 uM; treatment: drug
Procedure: as §1

COLO-205 [5] = assay: as above; conditions: drug used in drug arm: AZ628 1 uM; treatment: drug
Procedure: as §1

SK-BR-3 [6] = assay: as above; conditions: drug used in drug arm: lapatinib 1 uM; treatment: drug
Procedure: as §1

NCI-H596 [7] = assay: as above; conditions: drug used in drug arm: paclitaxel 6 uM; treatment: drug
Procedure: as §1

M14 [8] = assay: as above; conditions: drug used in drug arm: AZ628 1 uM; treatment: drug
Procedure: as §1

MKN-45 [9] = assay: % viability in DMSO, miRNA mimic relative to NTC in DMSO; higher = less cytotoxic; conditions: drug used in drug arm: crizotinib 1 uM; treatment: DMSO
Procedure: as §1

NCI-H441 [10] = assay: as above; conditions: drug used in drug arm: carboplatin 2.5 uM; treatment: DMSO
Procedure: as §1

HCC-1954 [11] = assay: as above; conditions: drug used in drug arm: GDC-0980 2.5 uM; treatment: DMSO
Procedure: as §1

EVSA-T [12] = assay: as above; conditions: drug used in drug arm: GDC-0980 2.5 uM; treatment: DMSO
Procedure: as §1

COLO-205 [13] = assay: as above; conditions: drug used in drug arm: AZ628 1 uM; treatment: DMSO
Procedure: as §1

SK-BR-3 [14] = assay: as above; conditions: drug used in drug arm: lapatinib 1 uM; treatment: DMSO
Procedure: as §1

NCI-H596 [15] = assay: as above; conditions: drug used in drug arm: paclitaxel 6 uM; treatment: DMSO
Procedure: as §1

M14 [16] = assay: as above; conditions: drug used in drug arm: AZ628 1 uM; treatment: DMSO
Procedure: as §1

PC9 = assay: cell count fold change with erlotinib, miRNA mimic vs non-targeting control (log2 ratio); higher = more drug-tolerant survivors than NTC; conditions: erlotinib 1 µM; 72 h drug + 72 h drug-free recovery; perturbation: miRNA mimic

Sequence	% viability under drug (MKN-45 [1]) [%]	% viability under drug (NCI-H441 [2]) [%]	% viability under drug (HCC-1954 [3]) [%]	% viability under drug (EVSA-T [4]) [%]	% viability under drug (COLO-205 [5]) [%]	% viability under drug (SK-BR-3 [6]) [%]	% viability under drug (NCI-H596 [7]) [%]	% viability under drug (M14 [8]) [%]	% viability in DMSO (MKN-45 [9]) [%]	% viability in DMSO (NCI-H441 [10]) [%]	% viability in DMSO (HCC-1954 [11]) [%]	% viability in DMSO (EVSA-T [12]) [%]	% viability in DMSO (COLO-205 [13]) [%]	% viability in DMSO (SK-BR-3 [14]) [%]	% viability in DMSO (NCI-H596 [15]) [%]	% viability in DMSO (M14 [16]) [%]	cell count fold change with erlotinib (PC9)
AAGUGCCGCCAUCUUUUGAGUGU	0.444 ± 0.042	7.71 ± 2.4	0.919 ± 0.19	0.157	30.8 ± 0.9	8.32 ± 0.77	0.265 ± 0.011	1.98 ± 0.13	35.27 ± 0.22	13.71 ± 0.039	11.8 ± 0.37	12.3 ± 1.3	100.8 ± 0.28	22.2 ± 6.5	37.5 ± 5.6	15.7 ± 1.4	-4.45
ACAGUAGAGGGAGGAAUCGCAG	0.428 ± 0.005	38.6 ± 6.2	1.37 ± 0.43	0.124 ± 0.035	37.6 ± 4.1	25.7 ± 0.71	0.53 ± 0.13	4.04 ± 0.76	31.6 ± 9.1	34.6 ± 18	64.5 ± 2.5	25.6 ± 1.8	94 ± 5.5	67.8 ± 13	65.6 ± 2.4	20 ± 3.4	-3.56
AGUUAAUGAAUCCUGGAAAGU	1.55 ± 0.042	14.3 ± 0.47	1.99 ± 0.45	0.344 ± 0.059	43.4 ± 1.2	19.2 ± 4	0.869 ± 0.086	9.17 ± 1.3	40.6 ± 10	61.6 ± 15	48.3 ± 2	26.1 ± 11	101.6 ± 0.44	33.3 ± 1.6	25.4 ± 6.1	55.5 ± 2.1	-4.81
CAAAAGUAAUUGUGGAUUUUGU	1.49 ± 0.11	13.6 ± 2	1.55 ± 0.17	0.243 ± 0.018	44.6 ± 3.2	20.2 ± 1.6	0.808 ± 0.028	14.1 ± 0.89	40.7 ± 3.5	62.3 ± 2.6	88.3 ± 15	39.3 ± 3.4	106 ± 1.7	46.3 ± 3.1	73.6 ± 2.9	62.9 ± 9	-2.88
CAAUGUUUCCACAGUGCAUCAC	0.794 ± 0.25	4.19 ± 0.47	1.26 ± 0.032	0.155 ± 0.049	29.2 ± 4.1	9.29 ± 0.1	0.731 ± 0.068	5.66 ± 1.1	2.31 ± 0.74	2.78 ± 0.14	7.62 ± 0.18	2.27 ± 1.2	98.6 ± 2	16.8 ± 1.4	15.2 ± 1.5	42.7 ± 9	-2.66
GAAUGUUGCUCGGUGAACCCCU	0.355 ± 0.046	4.29 ± 0.14	0.831 ± 0.092	0.08 ± 0.004	36.6 ± 1.2	10.1 ± 0.42	0.932 ± 0.015	3.18 ± 0.17	8.61 ± 2.6	7.26 ± 0.039	10.8 ± 1.4	0.953 ± 0.055	102 ± 1.1	12.4 ± 5.7	7.07 ± 2.1	17.3 ± 2.9	-3.27
